What all share (test): inhibition of tumour cell growth, NCI panel, 48 h
The test system of assay [1] is COLO 205 colon.
Assay [2] deals with HOP-62 NSCLC.
For assay [3], the system named is MALME-3M melanoma.
Assay [4] has as its system MDA-N.
Assay [5] deals with NCI-H23 lung.
The subject of assay [6] is RXF 393 renal.
In assay [7] the test system is SK-MEL-28 melanoma.
In assay [8] the test system is SK-OV-3 ovarian.
Assay [9] relates to SNB-19 CNS.

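Growth conditions: 96-well plates. Treatment: test compound, 48 hours, 5 concentrations. Analysis: linear interpolation between bracketing concentrations; unreached endpoints set to highest concentration. Definition used: TGI = concentration required for complete inhibition of growth.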

Take `CCC1c2[nH]c3ccccc3c2C[C@H]2C(=O)NC(C)C(=O)N12` (stereo not given in full): the TGI in assay [1], in assay [2], in [3], in assay [4], in assay [5] and in assay [6] was greater than 100 µM each time. Also, the TGI in [7], in [8] and in [9] was greater than 100 µM in each case.

Take `CCOP(=O)(OCC)C(c1ccc(F)cc1)N(C(=O)NC(F)(F)F)c1ccc(F)cc1` (stereo not given): the TGI in assay [1], in assay [2], in assay [3], in assay [4], in assay [5] and in [6] was greater than 100 µM throughout. Also, the TGI in assay [7] and in assay [9] was greater than 100 µM throughout.

As for `O=c1cc(NNc2ccccc2)[nH]c(=O)[nH]1`, the TGI in [1] was 31.8 µM; in [2], greater than 100 µM; in [3], 34.4 µM; in assay [4], 35.1 µM; in assay [5], greater than 100 µM; in assay [7], 23.2 µM. The TGI in assay [8] is greater than 100 µM; in assay [9] it was 35.5 µM.

`N=c1oc2ccc3ccccc3c2cc1-c1nc2ccccc2c(=O)[nH]1`: the TGI in assay [1] is greater than 100 µM; in assay [2] it was 45.4 µM; in [3], greater than 100 µM; in assay [4] it was greater than 100 µM; in assay [6], 56.7 µM; in [7] it was greater than 100 µM. The TGI in [8] and in assay [9] was greater than 100 µM throughout.

In the case of `Cc1cc(=O)[nH]c2cc(NC(=O)C(C)NC(=O)C(C)NC(=O)C(C)NC(=O)OC(C)(C)C)ccc12` (stereo not given), the TGI in assay [1], in assay [2], in assay [4], in [5], in assay [6] and in assay [7] was greater than 15 µM each time. The same compound gave a TGI in assay [9] greater than 15 µM.

Regarding `Cc1cccc2c(=O)c3cccc([C@H](C)C(=O)O)c3oc12`, the TGI in assay [1], in assay [2], in assay [3], in assay [4], in assay [5] and in assay [7] was greater than 100 µM each time. The TGI in assay [8] and in assay [9] was greater than 100 µM each time.

For `Nc1cc(CO)cc(Nc2c3ccccc3nc3ccccc23)c1`, the TGI in assay [1] was 23.8 µM; in assay [2], 28.8 µM; in assay [3], 31.8 µM; in assay [4], 35.1 µM; in assay [5], 30.1 µM; in [6], 31.4 µM. The results for the TGI in assay [7] and in assay [8] were 32 µM and 29.5 µM, respectively.

Take `C/C(Cc1ccc2c(c1)OCO2)=N\N=c1\sc2ccccc2n1C`: the TGI in assay [1], in assay [2], in assay [3], in assay [4], in [5] and in [6] was greater than 100 µM throughout. The TGI in assay [7] and in assay [9] was greater than 100 µM in each case.

`Cc1nc2c(Cl)cc(Cl)cc2c2c1CCO2`: the TGI in assay [1], in assay [3], in [4], in assay [5], in assay [6] and in assay [7] was greater than 100 µM each time. In [9], this compound had a TGI greater than 100 µM.

With `CC1OC(NCCNCCNC2OC(C)C(O)C(O)C2O)C(O)C(O)C1O` (stereo not given), the TGI in assay [1], in assay [2], in assay [3], in [4], in assay [5] and in assay [6] was greater than 100 µM each time. Also, the TGI in [7] and in [9] was greater than 100 µM throughout.

Turning to `O=C1C=C(NCCc2ccc(O)c([N+](=O)[O-])c2)C(=O)c2[nH]cnc21`, the TGI is greater than 100 µM in assay [1]; greater than 100 µM in assay [2]; 17.6 µM in assay [3]; 31.2 µM in assay [4]; 45 µM in assay [5]; 30.4 µM in assay [7]. This compound also gave a TGI in assay [9] greater than 100 µM.

With `COc1ccc(-c2c(C#N)c(N)[nH]c(=S)c2C#N)cc1`, the TGI in assay [1] is greater than 100 µM; in assay [2], greater than 100 µM; in assay [3] it was 86 µM; in assay [4], 28.5 µM; in [5], greater than 100 µM; in assay [6], 98.3 µM. For the same compound, the TGI in [7] and in [9] was greater than 100 µM each time.

Turning to `COc1cc2ncnc(NS(=O)(=O)c3cc4ccccc4s3)c2cc1OC`, the TGI in [1], in [2], in [3], in [4], in assay [5] and in assay [6] was greater than 100 µM throughout. Further, the TGI in assay [8] and in [9] was greater than 100 µM in each case.

Consider `CN1C/C(=C\c2cccs2)C2=NN(c3ccccc3)C(c3cccs3)C2C1` (stereo not given), for which the TGI is greater than 100 µM in assay [1]; greater than 100 µM in assay [2]; greater than 51.1 µM in [3]; 3.99 µM in [4]; greater than 100 µM in assay [5]; greater than 100 µM in assay [7]. The TGI in assay [8] and in assay [9] was greater than 100 µM throughout.

For the compound `CC(=O)OCC1OC(n2c(C)c(C)cc(C#N)c2=S)C(OC(C)=O)C(OC(C)=O)C1OC(C)=O` (stereo not given), the TGI in assay [2], in assay [3], in [4], in assay [5], in assay [6] and in assay [7] was greater than 100 µM throughout. Also, the TGI in [9] is greater than 100 µM.

As for `CC(O)C(CO)NC(=O)C1CSSCC(NC(=O)C(N)Cc2ccccc2)C(=O)NC(Cc2ccccc2)C(=O)NC(Cc2c[nH]c3ccccc23)C(=O)NC(CCCCN)C(=O)NC(C(C)O)C(=O)N1` (stereo not given), the TGI in assay [1], in [2], in [3], in [4], in assay [5] and in assay [6] was greater than 100 µM in each case. Also, the TGI in [7] and in [9] was greater than 100 µM throughout.
